What was measured:
[1] = tested on: T-cells derived from haemophiliac patients; assay: T-cell proliferation with FVIII specific T cell lines from haemophiliac patients; format: cell-based, human; settings: T-cells from haemophiliac blood
Excerpt: In a further embodiment of this approach, the inventors have provided a method whereby the FVIII sequence is scanned for the presence and location of T-cell epitopes using ex vivo biological T-cell assays where the T-cells are derived from haemophiliac patients. For a proportion of such patients the FVIII protein constitutes a foreign protein and a potent antigen in vivo. The inventors have established that it is possible to derive polyclonal and in principle mononclonal T-cell lines in vitro from the PBMC of such individuals and these lines may be used as effective reagents in the mapping of T-cell epitopes within the FVIII protein. […]
In the present case in the synthetic peptides were analysed using a system of pools each containing 8 different peptide sequences. […] These cells are stimulated with antigen (e.g. synthetic peptide or whole protein) using most preferably autologous antigen presenting cells as previously for around 4 days and the subsequent proliferative response (if any) is measured thereafter. […] In this way any individual T-cell epitope is represented in 2 separate pools and induced proliferation will be detected from treatments using both of those pools. Where a proliferative response is detected to any given peptide pool, the peptide pool is decoded repeating the assay using the individual pool members in isolation. […]

[2] = tested on: naïve human T-cells; assay: Naïve T cell epitope map: ex vivo T-cell proliferation using PBMC from healthy donors; format: cell-based; settings: cells of a healthy non haemophiliac individual
Excerpt: This approach has proven to be a particularly effective method and is disclosed herein as an embodiment of the invention. The method can be applied to test part of the sequence, for example a FVIII protein lacking all or part of the B-domain; the method can be applied to selected regions of the sequence, for example a sub-set of FVIII peptides such as all or some of those listed in FIG. 1; or the method may be applied to test whole FVIII sequence. In the present studies, the method has involved the testing of overlapping FVIII-derived peptide sequences in a scheme so as to scan and test a FVIII sequence lacking the B-domain. The synthetic peptides are tested for their ability to evoke a proliferative response in human T-cell cultured in vitro. […] The stimulation index is conventionally derived by division of the proliferation score (e.g. counts per minute of radioactivity if using ^3H-thymidine incorporation) measured to the test peptide by the score measured in cells not contacted with a test peptide.
Blood from 40 healthy HLA-DR typed donors was used to isolate PBMC which were used to screen individual FVIII peptides at two concentrations (1 and 5 μM). […] MHC allotypes were detected using
PBMC contain physiological numbers of naïve T cells and antigen presenting cells. […] Cultures were harvested onto filtermats and the cpm/well was determined using a Wallac Microplate Beta counter.

Sequence	proliferation of ex vivo T-cells [1]	proliferation of ex vivo T-cells [2]
IARYIRLHPTHYSIRSTLRM [Peptide P11]	active	–
ISQFIIMYSLDGKKW [Peptide P10]	able to evoke proliferation of ex vivo T-cells	able to evoke proliferation of ex vivo T-cells

Reference: US20050256304A1, “Modified factor VIII” (priority 2002, published 2005)
